Assay results as given in ChEMBL document CHEMBL4177521, “Therapeutic Potential of Fatty Acid Amide Hydrolase, Monoacylglycerol Lipase, and N-Acylethanolamine Acid Amidase Inhibitors” (J Med Chem, 2017).
Values belong to the molecule of their own block, whether it stands above or below them.

Tests used:
[1] = target: T1, Fatty-acid amide hydrolase 2 (Homo sapiens, UniProt Q6GMR7); test: Inhibition of recombinant human N-terminal FLAG-tagged/C-terminal Myc-His6 tagged FAAH2 (32 to 579 residues) expressed in COS7 cell membranes; assay type: cell-based
T1 sequence (Q6GMR7 whole entry): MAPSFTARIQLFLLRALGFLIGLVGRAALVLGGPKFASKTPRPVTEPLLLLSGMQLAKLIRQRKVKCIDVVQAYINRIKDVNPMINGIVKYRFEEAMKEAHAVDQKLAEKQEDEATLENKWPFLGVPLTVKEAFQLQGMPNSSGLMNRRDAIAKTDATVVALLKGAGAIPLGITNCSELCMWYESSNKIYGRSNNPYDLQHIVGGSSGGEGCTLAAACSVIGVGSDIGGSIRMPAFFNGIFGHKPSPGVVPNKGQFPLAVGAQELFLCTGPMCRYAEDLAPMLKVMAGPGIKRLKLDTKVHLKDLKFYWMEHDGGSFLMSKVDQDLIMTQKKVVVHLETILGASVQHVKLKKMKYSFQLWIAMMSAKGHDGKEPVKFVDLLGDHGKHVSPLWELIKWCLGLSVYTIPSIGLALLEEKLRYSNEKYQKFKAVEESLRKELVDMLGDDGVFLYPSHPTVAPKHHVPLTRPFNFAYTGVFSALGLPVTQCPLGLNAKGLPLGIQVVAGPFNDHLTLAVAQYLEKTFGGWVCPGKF

Monoglyceride lipase [2] = target: T2, Monoglyceride lipase (Rattus norvegicus, UniProt Q8R431); test: Inhibition of recombinant rat N-terminal histidine tagged MAGL expressed in Escherichia coli Rosetta 2 (DE3) pLysS cells preincubated for 10 mins followed by 2-OG substrate addition after 10 mins by LC/MS analysis
T2 sequence (Q8R431 whole entry): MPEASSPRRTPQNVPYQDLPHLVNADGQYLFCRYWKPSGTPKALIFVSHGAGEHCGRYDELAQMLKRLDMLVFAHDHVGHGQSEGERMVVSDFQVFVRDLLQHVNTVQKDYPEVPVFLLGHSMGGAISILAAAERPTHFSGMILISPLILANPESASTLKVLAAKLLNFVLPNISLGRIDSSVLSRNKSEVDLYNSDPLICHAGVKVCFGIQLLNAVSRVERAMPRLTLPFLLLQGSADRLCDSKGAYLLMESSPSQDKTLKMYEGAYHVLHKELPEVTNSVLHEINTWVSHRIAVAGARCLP

Monoglyceride lipase [3] = target: T2, Monoglyceride lipase; test: Inhibition of rat MAGL
Monoglyceride lipase [4] = target: T3, Monoglyceride lipase (Mus musculus, UniProt O35678); test: Inhibition of mouse MAGL
T3 sequence (O35678 whole entry): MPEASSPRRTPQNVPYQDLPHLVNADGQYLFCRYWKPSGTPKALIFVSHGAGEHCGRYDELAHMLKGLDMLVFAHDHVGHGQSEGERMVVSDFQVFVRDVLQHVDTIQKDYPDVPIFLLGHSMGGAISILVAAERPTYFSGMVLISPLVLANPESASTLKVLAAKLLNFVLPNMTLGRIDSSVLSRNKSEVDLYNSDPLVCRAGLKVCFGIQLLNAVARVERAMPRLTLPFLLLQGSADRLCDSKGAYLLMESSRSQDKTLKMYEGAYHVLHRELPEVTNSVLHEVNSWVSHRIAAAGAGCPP

[5] = target: T4, Fatty-acid amide hydrolase 1 (Rattus norvegicus, UniProt P97612); test: Inhibition of rat FAAH assessed as reduction in [14C]oleamide conversion to oleic acid by Lineweaver-Burk plot analysis
T4 sequence (P97612 whole entry): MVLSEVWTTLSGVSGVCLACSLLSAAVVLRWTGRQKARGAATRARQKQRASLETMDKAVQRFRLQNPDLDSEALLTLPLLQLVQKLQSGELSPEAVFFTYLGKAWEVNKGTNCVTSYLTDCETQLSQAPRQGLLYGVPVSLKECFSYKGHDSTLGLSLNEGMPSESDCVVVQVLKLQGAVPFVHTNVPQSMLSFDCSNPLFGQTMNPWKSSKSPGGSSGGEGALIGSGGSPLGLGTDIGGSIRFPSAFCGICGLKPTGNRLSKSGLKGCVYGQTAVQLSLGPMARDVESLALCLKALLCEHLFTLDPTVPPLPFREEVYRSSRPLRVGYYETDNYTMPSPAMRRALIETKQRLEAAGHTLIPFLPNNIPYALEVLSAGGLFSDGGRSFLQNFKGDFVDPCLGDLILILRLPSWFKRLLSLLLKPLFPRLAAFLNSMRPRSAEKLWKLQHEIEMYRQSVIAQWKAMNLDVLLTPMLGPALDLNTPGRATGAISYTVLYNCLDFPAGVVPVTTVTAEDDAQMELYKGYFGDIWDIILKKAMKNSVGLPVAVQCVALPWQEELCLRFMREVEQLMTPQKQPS

[6] = target: T5, N-acylethanolamine-hydrolyzing acid amidase (Homo sapiens, UniProt Q02083); test: Inhibition of recombinant human NAAA expressed in HEK293 cells preincubated for 10 mins followed by PAMCA substrate addition after 30 mins by fluorescence assay; assay type: cell-based
T5 sequence (Q02083 whole entry): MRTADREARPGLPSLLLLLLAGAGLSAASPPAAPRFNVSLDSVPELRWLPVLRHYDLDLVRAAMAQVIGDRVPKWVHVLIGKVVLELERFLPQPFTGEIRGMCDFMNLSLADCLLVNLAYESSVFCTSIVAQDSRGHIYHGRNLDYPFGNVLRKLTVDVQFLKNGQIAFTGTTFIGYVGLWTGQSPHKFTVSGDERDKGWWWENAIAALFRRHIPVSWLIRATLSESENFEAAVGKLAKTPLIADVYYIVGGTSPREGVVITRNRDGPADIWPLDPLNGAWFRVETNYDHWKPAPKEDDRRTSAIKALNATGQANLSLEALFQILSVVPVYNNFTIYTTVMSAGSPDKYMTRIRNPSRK

Monoglyceride lipase [7] = target: T6, Monoglyceride lipase (Homo sapiens, UniProt Q99685); test: Inhibition of recombinant human N-terminal His6-tagged and C-terminal Strep-tagged MAGL expressed in Escherichia coli Rosetta using [3H]2-OG as substrate after 10 mins by liquid scintillation counting method
T6 sequence (Q99685 whole entry): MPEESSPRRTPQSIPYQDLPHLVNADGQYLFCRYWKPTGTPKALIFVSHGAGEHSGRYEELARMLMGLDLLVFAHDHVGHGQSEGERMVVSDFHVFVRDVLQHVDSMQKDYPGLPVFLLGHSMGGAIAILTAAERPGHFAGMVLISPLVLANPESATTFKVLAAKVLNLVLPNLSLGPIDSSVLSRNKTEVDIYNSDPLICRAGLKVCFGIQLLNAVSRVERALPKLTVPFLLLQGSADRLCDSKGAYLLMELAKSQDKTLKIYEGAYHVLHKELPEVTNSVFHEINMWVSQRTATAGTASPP

[8] = target: T4, Fatty-acid amide hydrolase 1; test: Inhibition of Sprague-Dawley rat brain FAAH preincubated for 10 mins followed by [3H]-anandamide substrate addition after 30 mins by liquid scintillation counting method
[9] = target: T4, Fatty-acid amide hydrolase 1; test: Inhibition of rat brain microsomal FAAH using N-(2-hydroxyethyl)-4-pyren-1-yl-butanamide as substrate after 60 mins by RP HPLC based fluorescence assay
[10] = Half life in rat plasma at 3 uM by LC/MS analysis; assay type: ADME, cell-free
Monoglyceride lipase [11] = target: T2, Monoglyceride lipase; test: Inhibition of rat MAGL preincubated for 30 mins followed by FP-Rh addition after 30 mins by gel-based ABPP assay
Monoglyceride lipase [12] = target: T3, Monoglyceride lipase; test: Inhibition of mouse MAGL preincubated for 30 mins followed by FP-Rh addition after 30 mins by gel-based ABPP assay
Monoglyceride lipase [13] = target: T6, Monoglyceride lipase; test: Inhibition of recombinant human full length MAGL expressed in HEK293 cells preincubated for 30 mins followed by FP-Rh addition after 30 mins by gel-based ABPP assay; assay type: cell-based
[14] = target: T4, Fatty-acid amide hydrolase 1; test: Inhibition of FAAH in Wistar rat brain membranes using [3H]-anandamide as substrate preincubated for 10 mins followed by substrate addition measured after 4 mins by liquid scintillation counting method; assay type: cell membranes, Membrane
[15] = target: T5, N-acylethanolamine-hydrolyzing acid amidase; test: Time dependent inhibition of recombinant human NAAA expressed in HEK293 cells by liquid scintillation counting method; assay type: cell-based
[16] = target: T5, N-acylethanolamine-hydrolyzing acid amidase; test: Time dependent inhibition of recombinant human NAAA expressed in HEK293 cell membranes using [14C]-PEA as substrate by liquid scintillation counting method
[17] = target: T4, Fatty-acid amide hydrolase 1; test: Inhibition of rat FAAH
Monoglyceride lipase [18] = target: T2, Monoglyceride lipase; test: Inhibition of recombinant rat MAGL expressed in Escherichia coli using 2-AG as substrate

SMILES: O=C(CCCCCCc1ccccc1)c1ncc(-c2ccccn2)o1
IC50 [1]: 13.4 nM

SMILES: O=C(Oc1ccc([N+](=O)[O-])cc1)N1CCN(C(c2ccc(F)cc2)c2ccc(F)cc2)CC1
IC50 (Monoglyceride lipase [3]): 1800 nM
IC50 (Monoglyceride lipase [4]): 282 nM

SMILES: O=C(CCCCCCCCc1ccccc1)c1nc2ncccc2o1
Ki [5]: 0.52 nM

SMILES: NC(=O)c1cccc(-c2cccc(OC(=O)NC3CCCCC3)c2)c1 [URB-597]
IC50 [1]: 5 nM

SMILES: CCN(CC)C(=S)SSC(=S)N(CC)CC
IC50 (Monoglyceride lipase [7]): 360 nM

SMILES: CCCCCCCCCCC(=O)N[C@H]1CNC1=O
IC50 ([6]; hek293): 100 nM

SMILES: O=C(OC(C(F)(F)F)C(F)(F)F)N1CCN(Cc2cccc(Oc3ccccc3)c2)CC1
IC50 (Monoglyceride lipase [11]): 14 nM
IC50 (Monoglyceride lipase [12]): 7.6 nM
IC50 (Monoglyceride lipase [13]): 3.7 nM

SMILES: O=C(CCCCCCC1CCCCC1)N[C@H]1CNC1=O
IC50 [6]: 280 nM

SMILES: O=C(NC1CCCCC1)Oc1ccc(O)c(-c2ccccc2)c1
IC50 [14]: 30 nM

SMILES: CC(=O)Oc1cccc2c1C(=O)c1c(OC(C)=O)cc(C(=O)O)cc1C2=O [DIACEREIN]
IC50 [15]: 700 to 7200 nM
IC50 [16]: 700 to 7200 nM

SMILES: O=C(OC(C(F)(F)F)C(F)(F)F)N1CCC(C(O)(c2ccc3c(c2)OCO3)c2ccc3c(c2)OCO3)CC1
IC50 (Monoglyceride lipase [11]): 43 nM
IC50 (Monoglyceride lipase [12]): 15 nM

SMILES: COC(=O)[C@]1(C)CC[C@]2(C)CC[C@]3(C)C4=CC=C5C(=CC(=O)C(O)=C5C)[C@]4(C)CC[C@@]3(C)C2C1 (stereo not given in full)
IC50 (Monoglyceride lipase [18]): 93 nM

The remaining lines, values ahead:

IC50 (Monoglyceride lipase [2]): 20 nM
SMILES: CCCCCCCCn1sc2ccccc2c1=O

IC50 [6]: 302 nM
SMILES: CC(C)(C)[C@@H]1OC(=O)[C@@H]1NC(=O)OCCCCCc1ccccc1

IC50 ([6]; hek293): 240 nM
SMILES: CCCCCCCCCC(=O)N[C@H]1CNC1=O

IC50 [8]: 381 nM
SMILES: O=C(NC1CCCCC1)OCc1cn(-c2ccccc2)nn1

IC50 [9]: 5.3 nM
SMILES: O=C(NCCCCCCCn1nnc(-c2cccc(Cl)c2)n1)Oc1cccnc1

IC50 [6]: 234 nM
half-life at 3 µM [10]: > 5 min
SMILES: CC(C)(C)[C@@H]1OC(=O)[C@H]1NC(=O)OCCCCCc1ccccc1

IC50 (Monoglyceride lipase [3]): 4800 nM
IC50 (Monoglyceride lipase [4]): 2600 nM
SMILES: O=C(N1CCN(C(c2ccccc2)c2ccccc2)CC1)n1ccnc1

Ki [5]: 0.75 nM
SMILES: CCCCCCCCCC(=O)c1nc2ncccc2o1

IC50 (Monoglyceride lipase [2]): 43 nM
SMILES: CCCCCCCC/C=C\CCCCCCCCn1sccc1=O

IC50 (Monoglyceride lipase [11]): 385 nM
SMILES: CN(Cc1cccc(-c2ccncc2)c1)C(=O)OC(C(F)(F)F)C(F)(F)F

IC50 [17]: 86 nM
SMILES: COc1nn(-c2ccc(NC(=O)OCc3ccccc3)c(C)c2)c(=O)o1
